Earlier results as cited in patent publication US20210069187A1, “Stable pharmaceutical composition of Selexipag” (RK Pharma Solutions LLC, priority 2019, published 2021).

Tests used:
[1] = not given; remark: listed apart in the source

solubility in water: practically insoluble
stability in the solid state [1]: very stable
hygroscopicity ([1]; solid state): not hygroscopic
light sensitivity ([1]; solid state): not light sensitive
SMILES: CC(C)N(CCCCOCC(=O)NS(C)(=O)=O)c1cnc(-c2ccccc2)c(-c2ccccc2)n1 [Selexipag, 2-{4-[N-(5,6-diphenylpyrazin-2-yl)-N-isopropylamino]butyloxy}-N-(methylsulfonyl)acetamide]
